In brackets after ≈: the same amount, converted by molar mass.
Experiments:
Format in all cases: functional
[1] = Antioxidant activity against ferric chloride-induced lipid peroxidation using egg lecithin at 5 ug/ml after 1 hr
[2] = Antioxidant activity against ferric chloride-induced lipid peroxidation using egg lecithin at 2.5 ug/ml after 1 hr
[3] = Antioxidant activity against ferric chloride-induced lipid peroxidation using egg lecithin at 1 ug/ml after 1 hr
[4] = Antioxidant activity against ferric chloride-induced lipid peroxidation using egg lecithin at 0.75 ug/ml after 1 hr
[5] = Antioxidant activity against ferric chloride-induced lipid peroxidation using egg lecithin at 0.5 ug/ml after 1 hr
[6] = Antioxidant activity against ferric chloride-induced lipid peroxidation using egg lecithin at 0.25 ug/ml after 1 hr
[7] = Antioxidant activity against ferric chloride-induced lipid peroxidation using egg lecithin at 0.1 ug/ml after 1 hr
[8] = Antioxidant activity against ferric chloride-induced lipid peroxidation using egg lecithin at 0.05 ug/ml after 1 hr
[9] = Antioxidant activity against ferric chloride-induced lipid peroxidation using egg lecithin at 0.01 ug/ml after 1 hr
[10] = Antioxidant activity against ferric chloride-induced lipid peroxidation using egg lecithin at 50 ug/ml after 1 hr
[11] = Antioxidant activity against ferric chloride-induced lipid peroxidation using egg lecithin at 100 ug/ml after 1 hr
[12] = Antioxidant activity against ferric chloride-induced lipid peroxidation using egg lecithin at 10 ug/ml after 1 hr
[13] = Antiinflammatory activity against heat-induced albumin denaturation at […] preincubated for 15 mins before heat induction by UV-vis spectrophotometer analysis
Aspergillus flavus [14] = assay: Antimicrobial activity against Aspergillus flavus MTCC 873
Aspergillus niger [15] = assay: Antimicrobial activity against Aspergillus niger MTCC 281
Shigella flexneri [16] = assay: Antimicrobial activity against Shigella flexneri MTCC 1457
Escherichia coli [17] = assay: Antimicrobial activity against Escherichia coli MTCC 724
Klebsiella pneumoniae [18] = assay: Antimicrobial activity against Klebsiella pneumoniae MTCC 3384
Staphylococcus aureus [19] = assay: Antimicrobial activity against Staphylococcus aureus MTCC 96
Bacillus cereus [20] = assay: Antimicrobial activity against Bacillus cereus MTCC 8372
Aspergillus niger [21] = assay: Antimicrobial activity against Aspergillus niger MTCC 281 at 50 ug/ml after 24 hrs by agar disc diffusion method; details: MTCC 281, 24 h, read-out: DIZ
Aspergillus niger [22] = assay: Antimicrobial activity against Aspergillus niger MTCC 281 at 100 ug/ml after 24 hrs by agar disc diffusion method; details: MTCC 281, 24 h, read-out: DIZ
Aspergillus flavus [23] = assay: Antimicrobial activity against Aspergillus flavus MTCC 873 at 100 ug/ml after 24 hrs by agar disc diffusion method; details: MTCC 873, 24 h, read-out: DIZ
Aspergillus flavus [24] = assay: Antimicrobial activity against Aspergillus flavus MTCC 873 at 50 ug/ml after 24 hrs by agar disc diffusion method; details: MTCC 873, 24 h, read-out: DIZ
Shigella flexneri [25] = assay: Antimicrobial activity against Shigella flexneri MTCC 1457 at 100 ug/ml after 24 hrs by agar disc diffusion method; details: MTCC 1457, 24 h, read-out: DIZ
Shigella flexneri [26] = assay: Antimicrobial activity against Shigella flexneri MTCC 1457 at 50 ug/ml after 24 hrs by agar disc diffusion method; details: MTCC 1457, 24 h, read-out: DIZ
Klebsiella pneumoniae [27] = assay: Antimicrobial activity against Klebsiella pneumoniae MTCC 3384 at 100 ug/ml after 24 hrs by agar disc diffusion method; details: MTCC 3384, 24 h, read-out: DIZ
Klebsiella pneumoniae [28] = assay: Antimicrobial activity against Klebsiella pneumoniae MTCC 3384 at 50 ug/ml after 24 hrs by agar disc diffusion method; details: MTCC 3384, 24 h, read-out: DIZ
Escherichia coli [29] = assay: Antimicrobial activity against Escherichia coli MTCC 724 at 100 ug/ml after 24 hrs by agar disc diffusion method; details: MTCC 724, 24 h, read-out: DIZ
Escherichia coli [30] = assay: Antimicrobial activity against Escherichia coli MTCC 724 at 50 ug/ml after 24 hrs by agar disc diffusion method; details: MTCC 724, 24 h, read-out: DIZ
Staphylococcus aureus [31] = assay: Antimicrobial activity against Staphylococcus aureus MTCC 96 at 100 ug/ml after 24 hrs by agar disc diffusion method; details: MTCC 96, 24 h, read-out: DIZ
Staphylococcus aureus [32] = assay: Antimicrobial activity against Staphylococcus aureus MTCC 96 at 50 ug/ml after 24 hrs by agar disc diffusion method; details: MTCC 96, 24 h, read-out: DIZ
Bacillus cereus [33] = assay: Antimicrobial activity against Bacillus cereus MTCC 8372 at 100 ug/ml after 24 hrs by agar disc diffusion method; details: MTCC 8372, 24 h, read-out: DIZ
Bacillus cereus [34] = assay: Antimicrobial activity against Bacillus cereus MTCC 8372 at 50 ug/ml after 24 hrs by agar disc diffusion method; details: MTCC 8372, 24 h, read-out: DIZ
[35] = Antioxidant activity assessed as reducing power of ferric ion at 50 ug/ml after 20 mins; set-up: scale not given: the % may be the effect or the level left
[36] = Antioxidant activity assessed as reducing power of ferric ion at 100 ug/ml after 20 mins; set-up: scale not given: the % may be the effect or the level left
[37] = Antioxidant activity assessed as reducing power of ferric ion at 10 ug/ml after 20 mins; set-up: scale not given: the % may be the effect or the level left
[38] = system: Radical scavenging activity; assay: Antioxidant activity assessed as DPPH free radical scavenging activity at 50 ug/ml after 20 mins
[39] = system: Radical scavenging activity; assay: Antioxidant activity assessed as DPPH free radical scavenging activity at 100 ug/ml after 20 mins
[40] = system: Radical scavenging activity; assay: Antioxidant activity assessed as DPPH free radical scavenging activity at 10 ug/ml after 20 mins

| Compound | inhibition [10] [%] | inhibition [11] [%] | inhibition [12] [%] | inhibition [13] [%] | MIC (Aspergillus flavus [14]) [µg/mL] | MIC (Aspergillus niger [15]) [µg/mL] | MIC (Shigella flexneri [16]) [µg/mL] | MIC (Escherichia coli [17]) [µg/mL] | MIC (Klebsiella pneumoniae [18]) [µg/mL] | MIC (Staphylococcus aureus [19]) [µg/mL] | MIC (Bacillus cereus [20]) [µg/mL] | zone of inhibition at 50 µg/mL (Aspergillus niger [21]) [mm] | zone of inhibition at 100 µg/mL (Aspergillus niger [22]) [mm] | zone of inhibition at 100 µg/mL (Aspergillus flavus [23]) [mm] | zone of inhibition at 50 µg/mL (Aspergillus flavus [24]) [mm] | zone of inhibition at 100 µg/mL (Shigella flexneri [25]) [mm] | zone of inhibition at 50 µg/mL (Shigella flexneri [26]) [mm] | zone of inhibition at 100 µg/mL (Klebsiella pneumoniae [27]) [mm] | zone of inhibition at 50 µg/mL (Klebsiella pneumoniae [28]) [mm] | zone of inhibition at 100 µg/mL (Escherichia coli [29]) [mm] | further results |
| --- | --- | --- | --- | --- | --- | --- | --- | --- | --- | --- | --- | --- | --- | --- | --- | --- | --- | --- | --- | --- | --- |
| VITAMIN E | 62 | 92 | 47 |  |  |  |  |  |  |  |  |  |  |  |  |  |  |  |  |  | inhibition [1]: 26%; inhibition [2]: 17%; inhibition [3]: 9.3%; inhibition [4]: 7.7%; inhibition [5]: 6%; inhibition [6]: 4.1%; inhibition [7]: 3.4%; inhibition [8]: 2%; inhibition [9]: 1.2% |
| N/C(=N\O)C1CC(c2ccccc2)=NN1c1ccccc1 (configuration not stated) | 15 | 14 | 32 | 61.7 | 30 (≈ 107 µM) | 50 (≈ 178 µM) | 40 (≈ 143 µM) | 50 (≈ 178 µM) | 40 (≈ 143 µM) | 40 (≈ 143 µM) | 50 (≈ 178 µM) | 2 | 3 | 4 | 4 | 10 | 3 | 8 | 2 | 7 | zone of inhibition at 50 µg/mL (Escherichia coli [30]): 2 mm; zone of inhibition at 100 µg/mL (Staphylococcus aureus [31]): 6 mm; zone of inhibition at 50 µg/mL (Staphylococcus aureus [32]): 3 mm; zone of inhibition at 100 µg/mL (Bacillus cereus [33]): 3 mm; inhibition [1]: 21%; zone of inhibition at 50 µg/mL (Bacillus cereus [34]): 2 mm; inhibition [2]: 14.7%; inhibition [3]: 9.5%; inhibition [4]: 8.5%; inhibition [5]: 8.2%; inhibition [6]: 8%; inhibition [7]: 8.4%; inhibition [8]: 1.3%; inhibition [9]: 0.7%; Activity [35]: 12%; Activity [36]: 56%; Activity [37]: 8%; Activity [38]: 28%; Activity [39]: 51%; Activity [40]: 16% |
| Clc1ccc(C2=NN(c3ccccc3)C(c3noc(-c4ccccc4)n3)C2)cc1 (configuration not stated) | 44 | 71 | 31 | 60 | 10 (≈ 24.9 µM) | 15 (≈ 37.4 µM) | 25 (≈ 62.4 µM) | 45 (≈ 112 µM) | 25 (≈ 62.4 µM) | 50 (≈ 125 µM) | 30 (≈ 74.8 µM) | 9 | 18 | 18 | 12 | 8 | 6 | 8 | 6 | 10 | zone of inhibition at 50 µg/mL (Escherichia coli [30]): 4 mm; zone of inhibition at 100 µg/mL (Staphylococcus aureus [31]): 11 mm; zone of inhibition at 50 µg/mL (Staphylococcus aureus [32]): 3 mm; zone of inhibition at 100 µg/mL (Bacillus cereus [33]): 8 mm; zone of inhibition at 50 µg/mL (Bacillus cereus [34]): 5 mm; Activity [35]: 26%; Activity [36]: 62%; Activity [37]: 13%; Activity [38]: 40%; Activity [39]: 68%; Activity [40]: 23% |
| Oc1ccc(C2=NN(c3ccccc3)C(c3noc(-c4ccc(O)cc4)n3)C2)cc1 (configuration not stated) | 58 | 78 | 34 | 69.7 | 10 (≈ 25.1 µM) | 10 (≈ 25.1 µM) | 10 (≈ 25.1 µM) | 10 (≈ 25.1 µM) | 15 (≈ 37.6 µM) | 20 (≈ 50.2 µM) | 25 (≈ 62.7 µM) | 14 | 22 | 20 | 12 | 22 | 14 | 16 | 10 | 20 | zone of inhibition at 50 µg/mL (Escherichia coli [30]): 12 mm; zone of inhibition at 100 µg/mL (Staphylococcus aureus [31]): 12 mm; zone of inhibition at 50 µg/mL (Staphylococcus aureus [32]): 8 mm; zone of inhibition at 100 µg/mL (Bacillus cereus [33]): 10 mm; zone of inhibition at 50 µg/mL (Bacillus cereus [34]): 6 mm; Activity [35]: 30%; Activity [36]: 76%; Activity [37]: 12%; Activity [38]: 47%; Activity [39]: 86%; Activity [40]: 31% |
| COc1ccc(C2=NN(c3ccccc3)C(c3noc(-c4ccc(OC)c(OC)c4)n3)C2)cc1 (configuration not stated) | 49 | 76 | 34 | 29.9 | 10 (≈ 21.9 µM) | 10 (≈ 21.9 µM) | 15 (≈ 32.9 µM) | 20 (≈ 43.8 µM) | 20 (≈ 43.8 µM) | 15 (≈ 32.9 µM) | 10 (≈ 21.9 µM) | 16 | 30 | 20 | 16 | 24 | 10 | 18 | 8 | 16 | zone of inhibition at 50 µg/mL (Escherichia coli [30]): 8 mm; zone of inhibition at 100 µg/mL (Staphylococcus aureus [31]): 18 mm; zone of inhibition at 50 µg/mL (Staphylococcus aureus [32]): 10 mm; zone of inhibition at 100 µg/mL (Bacillus cereus [33]): 16 mm; zone of inhibition at 50 µg/mL (Bacillus cereus [34]): 12 mm; Activity [35]: 23%; Activity [36]: 74%; Activity [37]: 13%; Activity [38]: 48%; Activity [39]: 67%; Activity [40]: 29% |
| c1ccc(C2=NN(c3ccccc3)C(c3noc(-c4ccccc4)n3)C2)cc1 (configuration not stated) | 40 | 57 | 21 | 23.3 | 15 (≈ 40.9 µM) | 15 (≈ 40.9 µM) | 20 (≈ 54.6 µM) | 50 (≈ 136 µM) | 30 (≈ 81.9 µM) | 50 (≈ 136 µM) | 30 (≈ 81.9 µM) | 10 | 14 | 12 | 9 | 8 | 4 | 6 | 4 | 8 | zone of inhibition at 50 µg/mL (Escherichia coli [30]): 3 mm; zone of inhibition at 100 µg/mL (Staphylococcus aureus [31]): 8 mm; zone of inhibition at 50 µg/mL (Staphylococcus aureus [32]): 2 mm; zone of inhibition at 100 µg/mL (Bacillus cereus [33]): 8 mm; zone of inhibition at 50 µg/mL (Bacillus cereus [34]): 4 mm; Activity [35]: 16%; Activity [36]: 58%; Activity [37]: 6%; Activity [38]: 28%; Activity [39]: 39%; Activity [40]: 18% |
| COc1ccc(C2=NN(c3ccccc3)C(c3noc(-c4ccc(Cl)cc4)n3)C2)cc1 (configuration not stated) | 48 | 70 | 34 | 57.5 | 10 (≈ 23.2 µM) | 10 (≈ 23.2 µM) | 25 (≈ 58 µM) | 25 (≈ 58 µM) | 25 (≈ 58 µM) | 30 (≈ 69.6 µM) | 40 (≈ 92.8 µM) | 12 | 20 | 18 | 12 | 8 | 8 | 10 | 7 | 10 | zone of inhibition at 50 µg/mL (Escherichia coli [30]): 8 mm; zone of inhibition at 100 µg/mL (Staphylococcus aureus [31]): 12 mm; zone of inhibition at 50 µg/mL (Staphylococcus aureus [32]): 5 mm; zone of inhibition at 100 µg/mL (Bacillus cereus [33]): 13 mm; zone of inhibition at 50 µg/mL (Bacillus cereus [34]): 4 mm; Activity [35]: 23%; Activity [36]: 58%; Activity [37]: 12%; Activity [38]: 52%; Activity [39]: 72%; Activity [40]: 22% |
